Laboratory results: patent US11718614B2, “Compounds and methods for treatment of hedgehog pathway associated conditions” (Suzhou Mednes Pharma Tech Co., Ltd., priority 2018, dated 2023)

Tested on: tumor cells from medulloblastoma developed from mice with deficiency in Patched1 gene
Test: MB assay: survival of medulloblastoma tumor cells by MTT after 48 hours
Format: cell-based
Conditions: tumor cells treated 48 hours, cell survival by MTT
Procedure: To test the effect of the novel compounds on the proliferation of tumor cell, we isolated tumor cells from medulloblastoma developed from mice with deficiency in Patched1 gene. Tumor cells were plated in vitro as previously described, and treated with various concentration of compounds for 48 hours. Tumor cells cultured were then harvested to measure cell survival based on MTT assay. The IC50 value for each compound was calculated using Prism the statistical software.
Table 1 below summarizes the IC50 data obtained using MB assay for exemplary compounds of the invention. IC50 values are shown as A, B, C, or D. A represents IC50 value between 1.0 μM and 5.0 μM; B is between 5.0 μM and 10 μM; C is between 10 μM to 20 μM; and D indicates greater than 20 μM.

Compound | IC50 | IC50 (Mus musculus)
3-(tert-butylthio)-1-(4-chlorobenzyl)-2-(2-methyl-2-(2-methyl-2H-tetrazol-5-yl)propyl)-1H-indol-5-ol [Compound 38] | 1 to 5 µM | 
CC(C)c1ccc2c(c1)c(C(=O)C1CCC1)c(CC(C)(C)C(=O)O)n2Cc1ccc(Cl)cc1 [Compound 1, 3-(1-(4-chlorobenzyl)-3-(cyclobutanecarbonyl)-5-isopropyl-1H-indol-2-yl)-2,2-dimethylpropanoic acid] |  | 1 to 5 µM
CCOC(=O)C(C)(C)Cc1c(C(=O)C2CCC2)c2cc(C(C)C)ccc2n1Cc1ccc(Cl)cc1 [Compound 2, ethyl 3-(1-(4-chlorobenzyl)-3-(cyclobutanecarbonyl)-5-isopropyl-1H-indol-2-yl)-2,2-dimethylpropanoate] |  | > 20 µM
CC(C)c1ccc2c(c1)c(SCC(C)(C)C)c(CC(C)(C)C(=O)O)n2Cc1ccc(Cl)cc1 [Compound 3] |  | 1 to 5 µM
CCOC(=O)C(C)(C)Cc1c(SCC(C)(C)C)c2cc(C(C)C)ccc2n1Cc1ccc(Cl)cc1 [Compound 4, ethyl 3-(1-(4-chlorobenzyl)-5-isopropyl-3-(neopentylthio)-1H-indol-2-yl)-2,2-dimethylpropanoate] |  | > 20 µM
CC(C)c1ccc2c(c1)c([S+]([O-])CC(C)(C)C)c(CC(C)(C)C(=O)O)n2Cc1ccc(Cl)cc1 (centres unmarked) [Compound 5] |  | > 20 µM
CCOC(=O)C(C)(C)Cc1c([S+]([O-])CC(C)(C)C)c2cc(C(C)C)ccc2n1Cc1ccc(Cl)cc1 (centres unmarked) [Compound 6] |  | 10 to 20 µM
CC(C)c1ccc2c(c1)c(S(=O)(=O)CC(C)(C)C)c(CC(C)(C)C(=O)O)n2Cc1ccc(Cl)cc1 [Compound 7] |  | 10 to 20 µM
CCOC(=O)C(C)(C)Cc1c(S(=O)(=O)CC(C)(C)C)c2cc(C(C)C)ccc2n1Cc1ccc(Cl)cc1 [Compound 8] |  | 10 to 20 µM
CC(C)C(=O)c1c(CC(C)(C)C(=O)O)n(Cc2ccc(Cl)cc2)c2ccc(C(C)C)cc12 [Compound 9, 3-(1-(4-chlorobenzyl)-3-isobutyryl-5-isopropyl-1H-indol-2-yl)-2,2-dimethylpropanoic Acid] |  | 10 to 20 µM
CCOC(=O)C(C)(C)Cc1c(C(=O)C(C)C)c2cc(C(C)C)ccc2n1Cc1ccc(Cl)cc1 [Compound 10, Ethyl 3-(1-(4-chlorobenzyl)-3-isobutyryl-5-isopropyl-1H-indol-2-yl)-2,2-dimethylpropanoate] |  | > 20 µM
CC(C)c1ccc2c(c1)c(SC(C)(C)C)c(CCC(=O)O)n2Cc1ccc(Cl)cc1 [Compound 11, 3-(3-(tert-butylthio)-1-(4-chlorobenzyl)-5-isopropyl-1H-indol-2-yl) Propanoic Acid] |  | 5 to 10 µM
CCOC(=O)CCc1c(SC(C)(C)C)c2cc(C(C)C)ccc2n1Cc1ccc(Cl)cc1 [Compound 12] |  | > 20 µM
CC(C)c1ccc2c(c1)c(SC(C)(C)C)c(CC(=O)O)n2Cc1ccc(Cl)cc1 [Compound 13, 2-(3-(tert-butylthio)-1-(4-chlorobenzyl)-5-isopropyl-1H-indol-2-yl) Acetic Acid] |  | 10 to 20 µM
COC(=O)Cc1c(SC(C)(C)C)c2cc(C(C)C)ccc2n1Cc1ccc(Cl)cc1 [Compound 14, methyl 2-(3-(tert-butylthio)-1-(4-chlorobenzyl)-5-isopropyl-1H-indol-2-yl)acetate] |  | > 20 µM
CC(C)c1ccc2c(c1)c(SC(C)(C)C)c(CC(C)(C)C)n2Cc1ccc(Cl)cc1 [Compound 15] |  | > 20 µM
CC(C)c1cnc2c(c1)c(C(=O)C1CCC1)c(CC(C)(C)C(=O)O)n2Cc1ccc(Cl)cc1 [Compound 16, 3-(1-(4-chlorobenzyl)-3-(cyclobutanecarbonyl)-5-isopropyl-1H-pyrrolo-[2,3-b]pyridin-2-yl)-2,2-dimethylpropanoic acid] |  | 10 to 20 µM
COc1cnc2c(c1)c(SC(C)(C)C)c(CC(C)(C)C(=O)O)n2Cc1ccc(Cl)cc1 [Compound 17] |  | > 20 µM
CCOC(=O)C(C)(C)Cc1c(SC(C)(C)C)c2cc(OC)cnc2n1Cc1ccc(Cl)cc1 [Compound 18] |  | > 20 µM

Compound | IC50 | IC50 (Mus musculus)
CC(C)(C)CC(=O)c1c(CC(C)(C)C(=O)O)n(Cc2ccc(Cl)cc2)c2ccc(O)cc12 [Compound 19] |  | > 20 µM
CC(C)(C)CCc1c(CC(C)(C)CO)n(Cc2ccc(Cl)cc2)c2ccc(O)cc12 [Compound 20] |  | 1 to 5 µM
COC(=O)C(C)(C)Cc1c(C(=O)CC(C)(C)C)c2cc(OC)ccc2n1Cc1ccc(Cl)cc1 [Compound 21] |  | > 20 µM
COc1ccc2c(c1)c(C(=O)CC(C)(C)C)c(CC(C)(C)C(=O)O)n2Cc1ccc(Cl)cc1 [Compound 22] |  | > 20 µM
COc1ccc2c(c1)c(C(=O)CC(C)(C)C)c(CC(C)(C)CO)n2Cc1ccc(Cl)cc1 [Compound 23] |  | 5 to 10 µM
COC(=O)C(C)(C)Cc1c(C(=O)CC(C)(C)C)c2cc(O)ccc2n1Cc1ccc(Cl)cc1 [Compound 24] |  | 1 to 5 µM
CC(C)(C)CC(=O)c1c(CC(C)(C)CO)n(Cc2ccc(Cl)cc2)c2ccc(O)cc12 [Compound 25] |  | > 20 µM
COc1ccc2c(c1)c(CCC(C)(C)C)c(CC(C)(C)CO)n2Cc1ccc(Cl)cc1 [Compound 26] |  | 1 to 5 µM
CC(C)c1ccc2c(C(=O)c3ccc(Cl)cc3)c(CC(C)(C)C(=O)O)n(CC3CCC3)c2c1 [Compound 27] |  | 5 to 10 µM
COC(=O)C(C)(C)Cc1c(C(=O)c2ccc(Cl)cc2)c2ccc(C(C)C)cc2n1CC1CCC1 [Compound 28, methyl 3-(3-(4-chlorobenzoyl)-1-(cyclobutylmethyl)-6-isopropyl-1H-indol-2-yl)-2,2-dimethylpropanoate] |  | > 20 µM
CC(C)(Cc1c(C(=O)c2ccc(Cl)cc2)c2ccc(O)cc2n1CC1CCC1)C(=O)O [Compound 29, 3-(3-(4-chlorobenzoyl)-1-(cyclobutylmethyl)-6-hydroxy-1H-indol-2-yl)-2,2-dimethylpropanoic Acid] |  | > 20 µM
CCOC(=O)C(C)(C)Cc1c(C(=O)c2ccc(Cl)cc2)c2ccc(O)cc2n1CC1CCC1 [Compound 30, Ethyl 3-(3-(4-chlorobenzoyl)-1-(cyclobutylmethyl)-6-hydroxy-1H-indol-2-yl)-2,2-dimethylpropanoate] |  | > 20 µM
COc1ccc2c(c1)c(SC(C)(C)C)c(CC(C)(C)c1nc(C)co1)n2Cc1ccc(Cl)cc1 [Compound 31] |  | > 20 µM
Cc1coc(C(C)(C)Cc2c(SC(C)(C)C)c3cc(O)ccc3n2Cc2ccc(Cl)cc2)n1 [Compound 32] |  | 1 to 5 µM
CCc1noc(C(C)(C)Cc2c(SC(C)(C)C)c3cc(OC)ccc3n2Cc2ccc(Cl)cc2)n1 [Compound 33] |  | > 20 µM
CCc1noc(C(C)(C)Cc2c(SC(C)(C)C)c3cc(O)ccc3n2Cc2ccc(Cl)cc2)n1 [Compound 34] |  | 5 to 10 µM
COc1ccc2c(c1)c(SC(C)(C)C)c(CC(C)(C)c1nnnn1C)n2Cc1ccc(Cl)cc1 [Compound 35, 3-(tert-butylthio)-1-(4-chlorobenzyl)-5-methoxy-2-(2-methyl-2-(1-methyl-1H-tetrazol-5-yl)propyl)-1H-indole] |  | 5 to 10 µM
COc1ccc2c(c1)c(SC(C)(C)C)c(CC(C)(C)c1nnn(C)n1)n2Cc1ccc(Cl)cc1 [Compound 36, 3-(tert-butylthio)-1-(4-chlorobenzyl)-5-methoxy-2-(2-methyl-2-(2-methyl-2H-tetrazol-5-yl)propyl)-1H-indole] |  | 5 to 10 µM
Cn1nnnc1C(C)(C)Cc1c(SC(C)(C)C)c2cc(O)ccc2n1Cc1ccc(Cl)cc1 [Compound 37, 3-(tert-butylthio)-1-(4-chlorobenzyl)-2-(2-methyl-2-(1-methyl-1H-tetrazol-5-yl)propyl)-1H-indol-5-ol] |  | 10 to 20 µM
